Patent US10363239B2, “Method for inhibiting growth of cancer cells” (Pain Therapeutics, Inc., priority 2013, dated 2019)
Where two headings read alike, the source gives them in different places.

Key:
mu opiate receptor (MOR) = experiment: MOR agonist activity using [35S]GTPγS binding assay in striatal membranes; assay type: biochemical; details: for % DAMGO (0.1 μM) / % DAMGO (1 μM): relative to DAMGO; for % DAMGO + BFNA: 1 μM compound + β-FNA, relative to DAMGO + BFNA
Description: To assess the mu opiate receptor (MOR) agonist activity of positive compounds from the FLNA screening, compounds were tested in a [^35S]GTPγS binding assay using striatal membranes. […] This assay measures a functional consequence of receptor occupancy at one of the earliest receptor-mediated events. The assay permits traditional pharmacological parameters of potency, efficacy and antagonist affinity, with the advantage that agonist measures are not subjected to amplification or other modulation that may occur when analyzing parameters further downstream of the receptor.
Thus, striatal tissue was homogenized in 10 volumes of ice cold 25 mM HEPES buffer, pH 7.4, which contained 1 mM EGTA, 100 mM sucrose, 50 μg/ml leupeptin, 0.04 mM PMSF, 2 μg/ml soybean trypsin inhibitor and 0.2% 2-mercaptoethanol. The homogenates were centrifuged at 800×g for 5 minutes and the supernatants were centrifuged at 49,000×g for 20 minutes. The resulting pellets were suspended in 10 volume of reaction buffer, which contained 25 mM HEPES, pH 7.5, 100 mM NaCl, 50 μg/ml leupeptin, 2 μg/ml soybean trypsin inhibitor, 0.04 mM PMSF and 0.02% […].
The resultant striatal membrane preparation (200 μg) was admixed and maintained (incubated) at 30° C. for 5 minutes in reaction buffer as above that additionally contained 1 mM MgCl2 and 0.5 nM [^35S]GTPγS (0.1 μCi/assay, PerkinElmer Life and Analytical Sciences) in a total volume of 250 μl and continued for 5 minutes in the absence or presence of 0.1-10 μM of an assayed compound of interest. The reaction was terminated by dilution with 750 μl of ice-cold reaction buffer that contained 20 mM MgCl2 and 1 mM EGTA and immediate centrifugation at 16,000×g for 5 minutes.
The resulting pellet was solubilized by sonicating for 10 seconds in 0.5 ml of immunoprecipitation buffer containing 0.5% digitonin, 0.2% sodium cholate and 0.5% NP-40. Normal rabbit serum (1 μl) was added to 1 ml of lysate and incubated at 25° C. for 30 minutes. Nonspecific immune complexes were removed by incubation with 25 μl of protein A/G-conjugated agarose beads at 25° C. for 30 minutes followed by centrifugation at 5,000×g at 4° C. for 5 minutes. The supernatant was divided and separately incubated at 25° C. for 30 minutes with antibodies raised against Gαo proteins (1:1,000 dilutions).
The immunocomplexes so formed were collected by incubation at 25° C. for 30 minutes with 40 μl of agarose-conjugated protein A/G beads and centrifugation at 5,000×g at 4° C. for 5 minutes. The pellet was washed and suspended in buffer containing 50 mM Tris-HCl, pH 8.0, and 1% NP-40. The radioactivity in the suspension was determined by liquid scintillation spectrometry.

[1] = target: FLNA pentapeptide of SEQ ID NO: 1 (Bn-VAKGL) (Homo sapiens, UniProt P21333); experiment: FITC-NLX-based FLNA screening assay (inhibition of FITC-naloxone binding to Bn-VAKGL on streptavidin plates); details: for inhibition at 0.01 µM / inhibition at 0.1 µM / inhibition at 1 µM: 10 nM FITC-NLX
[2] = Series C-2, 0.1 μM compound, [35S]GTPγS binding to Gαo, striatal membranes
[3] = Series C-2, 1 μM compound + 1 μM β-FNA
[4] = Series C-2, 1 μM compound, [35S]GTPγS binding to Gαo, striatal membranes
[5] = FLNA-binding compound 0.01 μM, read-out: Percent Binding Inhibition
[6] = FLNA-binding compound 0.1 μM, read-out: Percent Binding Inhibition
[7] = FLNA-binding compound 1 μM, read-out: Percent Binding Inhibition
[8] = Series C-1, 0.1 μM compound, [35S]GTPγS binding to Gαo, striatal membranes
[9] = Series C-1, 1 μM compound + 1 μM β-FNA
[10] = Series C-1, 1 μM compound, [35S]GTPγS binding to Gαo, striatal membranes

SMILES	% DAMGO (0.1 μM) (mu opiate receptor (MOR); Series C-2, 0.1 μM compound) [%]	MOR agonist activity, percent [35S]GTPγS binding at the stated compound concentration (mu opiate receptor (MOR); [2]) [%]	MOR agonist activity, percent [35S]GTPγS binding at the stated compound concentration (mu opiate receptor (MOR); [3]) [%]	% DAMGO + BFNA (mu opiate receptor (MOR); Series C-2) [%]	% DAMGO (1 μM) (mu opiate receptor (MOR); Series C-2, 1 μM compound) [%]	MOR agonist activity, percent [35S]GTPγS binding at the stated compound concentration (mu opiate receptor (MOR); [4]) [%]	% DAMGO (0.1 μM) (mu opiate receptor (MOR); Series C-1, 0.1 μM compound) [%]	% DAMGO + BFNA (mu opiate receptor (MOR); Series C-1) [%]	% DAMGO (1 μM) (mu opiate receptor (MOR); Series C-1, 1 μM compound) [%]	further results
COc1ccc(S(=O)(=O)N2CCC3(NCCO3)C3CCCCC32)cc1 (stereo not shown) [Compound C0144M-2]	108.3	186.3	125.9	137.9	90.8	295.9				
O=C1CN(Cc2ccccc2)C2(CCN(C3CCCCC3)CC2)N1 [C0137M(P7)]	95.6	180.8	55.8	115.1	78.1	193.8				
NS(=O)(=O)c1ccc(S(=O)(=O)N2CCC3(CC2)NCCO3)cc1 [Compound C0034-3]										inhibition at 0.01 µM [1, 5]: 29.6%; inhibition at 0.1 µM [1, 6]: 38.3%; inhibition at 1 µM [1, 7]: 44.8%
CC(=O)c1ccc(S(=O)(=O)N2CCC3(CC2)NC(=O)CN3Cc2ccccc2)cc1 [Compound C0085M]							105.5	112.6	78.4	
O=S(=O)(c1ccccc1Oc1ccccc1)N1CCC2(CC1)NCCO2 [Compound C0149M-2]	122.0	209.8	93.4	102.3	124.8	406.7				
C=CCN1CC[C@]23c4c5ccc(O)c4O[C@H]2C(=O)CC[C@@]3(O)[C@H]1C5 [Naloxone Control, naloxone, reference compound]										inhibition at 0.01 µM ([1]; read-out: Percent Binding Inhibition, FLNA-binding compound 0.01 μM): 39.9%; inhibition at 0.1 µM ([1]; read-out: Percent Binding Inhibition, FLNA-binding compound 0.1 μM): 46.3%; inhibition at 1 µM ([1]; read-out: Percent Binding Inhibition, FLNA-binding compound 1 μM): 50.9%
CC(=O)c1ccc(S(=O)(=O)N2CCC3(CC2)NCCO3)cc1 [Compound C0055]										inhibition at 0.01 µM [1, 5]: 29%; inhibition at 0.1 µM [1, 6]: 34.9%; inhibition at 1 µM [1, 7]: 39.5%
CC(=O)c1ccc(S(=O)(=O)N2CCC3(CC2)NCC(=O)N3Cc2ccccc2)cc1 [Compound C0082M]							113.7	181.1	107.8	Concentration of FLNA-Binding Compound as Agonist 0.1 μM (mu opiate receptor (MOR); [8]): 228.1%; Concentration of FLNA-Binding Compound as Agonist 1 μM + BFNA (mu opiate receptor (MOR); [9]): 97.6%; Concentration of FLNA-Binding Compound as Agonist 1 μM (mu opiate receptor (MOR); [10]): 338.4%
COc1ccc(CCCCC2c3c(cc4c(c3OC)OCO4)CC[N+]2(C)C)cc1 (stereo not shown) [Compound B0056]										% DAMGO (0.1 μM) (mu opiate receptor (MOR); Series B, 0.1 μM compound): 98.9%; MOR agonist activity, percent [35S]GTPγS binding at the stated compound concentration (mu opiate receptor (MOR); Series B, 0.1 μM compound, [35S]GTPγS binding to Gαo, striatal membranes): 174.7%; MOR agonist activity, percent [35S]GTPγS binding at the stated compound concentration (mu opiate receptor (MOR); Series B, 1 μM compound + 1 μM β-FNA): 41.8%; % DAMGO + BFNA (mu opiate receptor (MOR); Series B): 158.9%; % DAMGO (1 μM) (mu opiate receptor (MOR); Series B, 1 μM compound): 113.6%; MOR agonist activity, percent [35S]GTPγS binding at the stated compound concentration (mu opiate receptor (MOR); Series B, 1 μM compound, [35S]GTPγS binding to Gαo, striatal membranes): 288.8%
C=CCN1CC[C@]23c4c5ccc(O)c4O[C@H]2C(=O)CC[C@@]3(O)[C@H]1C5 [NLX, naloxone, reference compound]										Inhibition of 10 nM FITC-conjugated NLX binding to biotinylated FLNA pentapeptide (FIG. 28) ([1]; 1 μM): inhibit well
COc1ccc(CN2CCC3(CC2)OCCN3S(=O)(=O)c2ccc(OC)cc2)cc1 [Compound C0038]										inhibition at 0.01 µM [1, 5]: 31.7%; inhibition at 0.1 µM [1, 6]: 36%; inhibition at 1 µM [1, 7]: 43.5%
C[C@@H](NC(=O)[C@@H](N)Cc1ccc(O)cc1)C(=O)NCC(=O)N(C)[C@@H](Cc1ccccc1)C(=O)NCCO [DAMGO, [D-Ala2, N-MePhe4, Gly-ol]-enkephalin, reference compound]	100			100	100		100	100	100	MOR agonist activity, FLNA-Binding Compound as Agonist 0.1 μM (preliminary study) (mu opiate receptor (MOR); 0.1 μM, average of two runs): 144.7%; MOR agonist activity, FLNA-Binding Compound as Agonist 1 μM + βNFA (preliminary study) (mu opiate receptor (MOR); 1 μM + βNFA, average of two runs): 56.8%; MOR agonist activity, FLNA-Binding Compound as Agonist 1 μM (preliminary study) (mu opiate receptor (MOR); 1 μM, average of two runs): 233.4%; Concentration of FLNA-Binding Compound as Agonist 0.1 μM (mu opiate receptor (MOR); [8]): 168.5%; Concentration of FLNA-Binding Compound as Agonist 1 μM + BFNA (mu opiate receptor (MOR); [9]): 53.2%; Concentration of FLNA-Binding Compound as Agonist 1 μM (mu opiate receptor (MOR); [10]): 266.1%; Concentration of FLNA-Binding Compound as Agonist 0.1 μM (mu opiate receptor (MOR); [2]): 168.5%; Concentration of FLNA-Binding Compound as Agonist 1 μM + BFNA (mu opiate receptor (MOR); [3]): 53.2%; Concentration of FLNA-Binding Compound as Agonist 1 μM (mu opiate receptor (MOR); [4]): 266.1%
COc1ccc(NC(=O)N2CCC3(CC2)NCCO3)cc1 [Compound C0151M-2]	201.6	346.8	212.8	233.1	122.0	397.6				
O=C(c1ccc([N+](=O)[O-])cc1)N1CCC2(CC1)OCCN2S(=O)(=O)c1ccc([N+](=O)[O-])cc1 [Compound C0033]							85.9	235.0	80.6	Concentration of FLNA-Binding Compound as Agonist 0.1 μM (mu opiate receptor (MOR); [8]): 134.5%; Concentration of FLNA-Binding Compound as Agonist 1 μM + BFNA (mu opiate receptor (MOR); [9]): 76.6%; Concentration of FLNA-Binding Compound as Agonist 1 μM (mu opiate receptor (MOR); [10]): 186.4%
COc1ccc(S(=O)(=O)N2CCOC23CCCNC3)cc1 (stereo not shown) [Compound C0145M-3]	112.2	193.0	87.0	95.3	88.7	289.2				
O=C1CN(Cc2ccccc2)C2(CCN(S(=O)(=O)c3cc(Cl)cc(Cl)c3O)CC2)N1 [Compound C0138M]							86.3	131.0	90.9	Concentration of FLNA-Binding Compound as Agonist 0.1 μM (mu opiate receptor (MOR); [8]): 126.9%; Concentration of FLNA-Binding Compound as Agonist 1 μM + BFNA (mu opiate receptor (MOR); [9]): 51.5%; Concentration of FLNA-Binding Compound as Agonist 1 μM (mu opiate receptor (MOR); [10]): 183.9%
